The values that follow come from patent US20200216439A1, “HETERO-1,5,6,7-TETRAHYDRO-4H-INDOL-4-ONES” (BAYER PHARMA AKTIENGESELLSCHAFT, priority 2015, published 2020).

By IC50 is commonly meant the concentration that inhibits the measured activity by half.

The test concerns the target T1, catalytic domain of human Bub1 (amino acids 704-1085) (Homo sapiens, UniProt O43683).
T1 construct: catalytic domain of human Bub1 (amino acids 704-1085); His6 (N); made in house; host or cells: Hi5 insect cells
Kind of test: Bub1 kinase assay (TR-FRET). Format: biochemical. The settings on record: TR-FRET; ATP 10 μM, peptide substrate 1 μM; 60 min at 22° C.; average or median if tested more than once; read-out: Inhibition of Bub1 kinase IC50. The procedure, abridged: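 Eleven concentrations (0.1 nM–20 μM, duplicate) fitted by 4-parameter logistic for IC50. Read-out: EDTA-stopped TR-FRET (665/620 nm) detecting anti-phosphoserine binding to biotin-peptide (1 μM). Reaction used 10 μM ATP, 60 min at 22 °C, after 15 min compound preincubation with His-tagged human Bub1 704-1085.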
(In general: In TR-FRET formats the signal depends on donor and acceptor labels being close together.)

T1 sequence (O43683 704-1085): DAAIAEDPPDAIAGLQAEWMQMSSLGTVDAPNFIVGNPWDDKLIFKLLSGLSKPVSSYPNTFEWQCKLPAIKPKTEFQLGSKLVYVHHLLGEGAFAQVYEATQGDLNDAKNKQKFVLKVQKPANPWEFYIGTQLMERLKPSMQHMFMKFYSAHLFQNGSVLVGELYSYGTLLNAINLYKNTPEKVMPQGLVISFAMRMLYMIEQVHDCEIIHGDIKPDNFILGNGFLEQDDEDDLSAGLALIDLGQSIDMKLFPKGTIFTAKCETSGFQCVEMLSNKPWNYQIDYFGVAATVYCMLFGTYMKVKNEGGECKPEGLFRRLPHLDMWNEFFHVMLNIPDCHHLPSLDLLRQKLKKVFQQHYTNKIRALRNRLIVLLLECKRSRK

As for `CC(=O)Nc1cc(-c2[nH]c3c(c2Nc2ccc(F)cc2)C(=O)CNC3)ccn1` [Example 302, N-(4-{3-[(4-Fluorophenyl)amino]-4-oxo-4,5,6,7-tetrahydro-1H-pyrrolo[2,3-c]pyridin-2-yl}pyridin-2-yl)acetamide], the IC50 turned out to be 297 nM.

Take `O=C1CNCc2[nH]c(-c3ccncc3OCC(F)(F)F)c(Nc3ccccc3)c21` [Example 225, 3-Anilino-2-[3-(2,2,2-trifluoroethoxy)pyridin-4-yl]-1,5,6,7-tetrahydro-4H-pyrrolo[2,3-c]pyridin-4-one]: the IC50 was 1020 nM.

With `O=C1COCc2[nH]c(-c3ccncc3Br)c(Nc3ccccc3)c21` [Example 41, 2-(3-Bromopyridin-4-yl)-3-(phenylamino)-1,7-dihydropyrano[3,4-b]pyrrol-4(5H)-one], the IC50 amounted to 233 nM.

Regarding `CC(C)S(=O)(=O)N1CC(=O)c2c([nH]c(-c3ccncc3OCC(F)F)c2Nc2ccccc2)C1` [Example 241, 2-[3-(2,2-Difluoroethoxy)pyridin-4-yl]-3-(phenylamino)-6-(propan-2-ylsulfonyl)-1,5,6,7-tetrahydro-4H-pyrrolo[2,3-c]pyridin-4-one], the IC50 was 13 nM.

With `O=C1CSCc2[nH]c(-c3ccncc3)c(Nc3ccccc3)c21` [Example 4, 3-(phenylamino)-2-(pyridin-4-yl)-1,7-dihydrothiopyrano[3,4-b]pyrrol-4(5H)-one], the IC50 turned out to be 19 nM.

As to `O=C1COCc2[nH]c(-c3ccncc3F)c(Nc3ccccc3)c21` [Example 33, 2-(3-Fluoropyridin-4-yl)-3-(phenylamino)-1,7-dihydropyrano[3,4-b]pyrrol-4(5H)-one], the IC50 stood at 17 nM.

`CSCCNC(=O)N1CC(=O)c2c([nH]c(-c3ccncc3)c2Nc2ccccc2)C1` [Example 87, N-[2-(Methylsulfanyl)ethyl]4-oxo-3-(phenylamino)-2-(pyridin-4-yl)-1,4,5,7-tetrahydro-6H-pyrrolo[2,3-c]pyridine-6-carboxamide]: the IC50 was 11 nM.

In the case of `CC(=O)Nc1cc(-c2[nH]c3c(c2Nc2ccccc2)C(=O)CN(C(=O)CCO)C3)ccn1` [Example 189], the IC50 is 16 nM.

Consider `CN(C)S(=O)(=O)N1CC(=O)c2c([nH]c(-c3ccnc(NC(=O)[C@@H]4C[C@@H]4F)c3)c2Nc2ccccc2)C1` [Example 272, (1S,2S)—N-4-[6-(Dimethylsulfamoyl)-4-oxo-3-(phenylamino)-4,5,6,7-tetrahydro-1H-pyrrolo[2,3-c]pyridin-2-yl]pyridin-2-yl-2-fluorocyclopropanecarboxamide], for which the IC50 came to 4 nM.

Turning to `CNS(=O)(=O)N1CC(=O)c2c([nH]c(-c3ccnc(NC(C)=O)c3)c2Nc2ccc(F)cc2)C1` [Example 315, N-(4-(3-[(4-Fluorophenyl)amino]-6-(methylsulfamoyl)-4-oxo-4,5,6,7-tetrahydro-1H-pyrrolo[2,3-c]pyridin-2-yl)pyridin-2-yl)acetamide], the IC50 worked out at 4 nM.

For the compound `CN1CCN(C(=O)N2CC(=O)c3c([nH]c(-c4ccncc4OCC4CC4)c3Nc3ccccc3)C2)CC1` [Example 252, 2-[3-(Cyclopropylmethoxy)pyridin-4-yl]-6-[(4-methylpiperazin-1-yl)carbonyl]-3-(phenylamino)-1,5,6,7-tetrahydro-4H-pyrrolo[2,3-c]pyridin-4-one], the IC50 amounted to 48 nM.

As to `CCC(=O)Nc1cc(-c2[nH]c3c(c2Nc2ccccc2)C(=O)COC3)ccn1` [Example 44, N-{4-[4-Oxo-3-(phenylamino)-1,4,5,7-tetrahydropyrano[3,4-b]pyrrol-2-yl]pyridin-2-yl}propanamide], the IC50 was 50 nM.

As to `CC(C)(C)SC(=O)N1CC(=O)c2c([nH]c(-c3ccncc3OCC(F)F)c2Nc2ccccc2)C1` [Example 304, S-tert-Butyl 3-anilino-2-[3-(2,2-difluoroethoxy)pyridin-4-yl]-4-oxo-1,4,5,7-tetrahydro-6H-pyrrolo[2,3c]pyridine-6-carbothioate], the IC50 stood at 233 nM.
